Assay results reported in ChEMBL document CHEMBL5233229, “Recent advances in the development of ubiquitin-specific-processing protease 7 (USP7) inhibitors” (Eur J Med Chem, 2020).

Key:
[1] = molecular target: T1, Ubiquitin carboxyl-terminal hydrolase 7 (Homo sapiens, UniProt Q93009); test: Inhibition of human USP7 using ubiquitin-Rh110 as substrate incubated for 30 mins by Fluorometric plate reader analysis
[2] = molecular target: T1, Ubiquitin carboxyl-terminal hydrolase 7; test: Inhibition of human USP7 using human N-terminal GST-tagged UBA52 as substrate preincubated for 10 mins followed by substrate addition measured after 45 mins by coomassie brilliant blue staining-based SDS-PAGE analysis
[3] = molecular target: T1, Ubiquitin carboxyl-terminal hydrolase 7; test: Inhibition of human USP7 using Ub-EKL as substrate by SDS-PAGE assay
[4] = molecular target: T2, Ubiquitin carboxyl-terminal hydrolase 47 (Homo sapiens, UniProt Q96K76); test: Inhibition of human USP47 using Ub-EKL as substrate by SDS-PAGE assay
T2 sequence (Q96K76 whole entry): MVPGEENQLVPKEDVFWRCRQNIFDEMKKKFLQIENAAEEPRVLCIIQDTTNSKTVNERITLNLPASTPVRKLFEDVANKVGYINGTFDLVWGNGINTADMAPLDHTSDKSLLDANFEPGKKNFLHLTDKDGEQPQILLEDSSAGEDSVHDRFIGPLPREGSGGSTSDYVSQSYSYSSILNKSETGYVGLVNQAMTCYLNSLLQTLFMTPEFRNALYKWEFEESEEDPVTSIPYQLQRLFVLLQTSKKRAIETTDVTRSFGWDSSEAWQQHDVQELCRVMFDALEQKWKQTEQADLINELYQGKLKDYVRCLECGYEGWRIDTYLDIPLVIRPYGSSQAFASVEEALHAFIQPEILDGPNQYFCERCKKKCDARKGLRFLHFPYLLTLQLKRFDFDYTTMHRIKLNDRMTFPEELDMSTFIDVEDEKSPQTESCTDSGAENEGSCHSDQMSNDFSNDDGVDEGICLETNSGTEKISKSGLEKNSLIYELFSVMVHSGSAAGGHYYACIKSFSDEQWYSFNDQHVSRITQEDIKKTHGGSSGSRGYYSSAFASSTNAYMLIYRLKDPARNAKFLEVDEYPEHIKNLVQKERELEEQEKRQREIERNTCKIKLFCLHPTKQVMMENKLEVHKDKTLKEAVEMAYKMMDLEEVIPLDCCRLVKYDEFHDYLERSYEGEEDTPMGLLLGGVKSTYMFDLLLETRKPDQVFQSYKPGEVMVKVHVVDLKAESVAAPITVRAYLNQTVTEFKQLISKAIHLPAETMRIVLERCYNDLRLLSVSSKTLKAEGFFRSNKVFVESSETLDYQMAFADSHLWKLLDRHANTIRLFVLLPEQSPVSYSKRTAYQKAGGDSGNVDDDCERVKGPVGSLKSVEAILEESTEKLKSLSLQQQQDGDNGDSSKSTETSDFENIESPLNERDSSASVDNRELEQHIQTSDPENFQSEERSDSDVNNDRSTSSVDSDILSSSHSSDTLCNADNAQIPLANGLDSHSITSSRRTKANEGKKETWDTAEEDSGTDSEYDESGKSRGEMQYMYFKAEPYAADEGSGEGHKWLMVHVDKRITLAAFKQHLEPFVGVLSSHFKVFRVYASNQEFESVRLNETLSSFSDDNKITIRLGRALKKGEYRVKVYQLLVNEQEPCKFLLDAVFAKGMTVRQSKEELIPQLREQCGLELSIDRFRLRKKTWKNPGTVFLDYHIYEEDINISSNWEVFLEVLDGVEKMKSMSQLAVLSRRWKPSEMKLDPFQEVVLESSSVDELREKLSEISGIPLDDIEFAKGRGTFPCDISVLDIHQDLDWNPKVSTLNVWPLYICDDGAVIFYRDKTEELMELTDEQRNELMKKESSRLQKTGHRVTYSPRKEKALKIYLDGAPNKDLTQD

T1 sequence (Q93009 whole entry): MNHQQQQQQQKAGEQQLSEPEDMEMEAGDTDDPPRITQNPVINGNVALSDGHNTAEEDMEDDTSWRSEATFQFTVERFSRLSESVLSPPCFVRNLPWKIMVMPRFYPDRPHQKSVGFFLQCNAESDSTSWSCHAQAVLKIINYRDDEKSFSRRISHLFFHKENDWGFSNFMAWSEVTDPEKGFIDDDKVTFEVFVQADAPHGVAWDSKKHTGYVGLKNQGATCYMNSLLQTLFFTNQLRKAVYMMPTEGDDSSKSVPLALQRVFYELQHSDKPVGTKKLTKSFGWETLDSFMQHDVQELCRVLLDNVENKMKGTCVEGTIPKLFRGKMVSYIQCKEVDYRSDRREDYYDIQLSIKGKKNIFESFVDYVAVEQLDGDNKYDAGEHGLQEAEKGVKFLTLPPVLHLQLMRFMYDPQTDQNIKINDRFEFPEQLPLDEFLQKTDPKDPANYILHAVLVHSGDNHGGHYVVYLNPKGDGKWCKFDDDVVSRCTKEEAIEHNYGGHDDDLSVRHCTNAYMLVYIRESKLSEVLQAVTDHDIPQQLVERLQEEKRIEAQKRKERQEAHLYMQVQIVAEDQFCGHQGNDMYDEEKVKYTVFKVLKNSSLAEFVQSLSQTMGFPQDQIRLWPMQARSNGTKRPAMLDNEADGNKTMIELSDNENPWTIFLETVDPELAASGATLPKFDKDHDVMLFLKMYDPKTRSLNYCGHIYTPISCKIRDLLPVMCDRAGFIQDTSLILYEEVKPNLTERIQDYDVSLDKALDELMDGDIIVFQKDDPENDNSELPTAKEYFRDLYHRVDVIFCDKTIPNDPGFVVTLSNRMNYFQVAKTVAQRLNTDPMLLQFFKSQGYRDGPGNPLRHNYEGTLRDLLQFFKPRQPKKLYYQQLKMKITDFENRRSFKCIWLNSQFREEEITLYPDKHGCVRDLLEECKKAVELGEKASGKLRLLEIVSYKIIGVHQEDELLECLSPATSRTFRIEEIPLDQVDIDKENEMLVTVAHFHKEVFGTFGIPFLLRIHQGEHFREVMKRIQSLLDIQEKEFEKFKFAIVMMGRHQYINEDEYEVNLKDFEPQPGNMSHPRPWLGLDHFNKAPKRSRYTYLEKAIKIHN

SMILES | IC50 [1] | IC50 [2] | EC50 [3] | EC50 [4]
C[C@@]12CCCc3coc(c31)C(=O)c1cc3c(cc12)CC1=C2N(CCS1(=O)=O)[C@@H](O)C[C@]23O | > 5 µM |  |  | 
CC1(C)CCC2(C(=O)O)CCC3=C([C@@H](CCl)C[C@@H]4[C@@]5(C)C[C@H](O)[C@H](O)[C@](C)(C(=O)O)[C@@H]5CC[C@]34C)[C@@H]2C1 (single isomer, unassigned) |  | > 50 µM |  | 
COC(=O)[C@]12CC[C@@H](C)[C@H](C)[C@H]1C1=CC[C@@H]3[C@@]4(C)CC[C@H](O)C(C)(C)[C@@H]4CC[C@@]3(C)[C@]1(C)CC2 [METHYL URSOLATE] |  | > 50 µM |  | 
C[C@@]12CCC(=O)c3coc(c31)C(=O)c1cc3c(cc12)C(=O)C=CC3=O [HELENAQUINONE] | 1.3 µM |  |  | 
C[C@@]12CCCc3coc(c31)C(=O)c1cc3c(cc12)C(=O)C=C(C1=CC(=O)c2cc4c(cc2C1=O)C(=O)c1occ2c1[C@@]4(C)CCC2)C3=O | 0.35 µM |  |  | 
CC1(C)CC[C@]2(C(=O)O)CC[C@]3(C)C(=CC[C@@H]4[C@@]5(C)C[C@H](O)[C@H](O)[C@@](C)(CO)[C@@H]5CC[C@]43C)[C@@H]2C1 |  | > 50 µM |  | 
O=C(c1cc([N+](=O)[O-])c(Sc2c(Cl)cncc2Cl)s1)N1CCS(=O)(=O)CC1 |  |  | 4.3 µM | 6.4 µM
O=C(NC1CCS(=O)(=O)c2ccccc21)c1cc([N+](=O)[O-])c(Sc2c(Cl)cncc2Cl)s1 (configuration not stated) |  |  | 0.81 µM | 1.6 µM
C[C@@]12CCCc3coc(c31)C(=O)c1cc3c(cc12)C(=O)C=C([C@]12CCC[C@@]4(C)c5cc6c(OS(=O)(=O)O)ccc(O)c6cc5C(=O)O[C@]14C(=O)OC2)C3=O | 2 µM |  |  | 
CS(=O)(=O)c1ccccc1NC(=O)c1cc([N+](=O)[O-])c(Sc2c(Cl)cncc2Cl)s1 |  |  | 0.85 µM | 9.3 µM
C=C(C)[C@@H]1CC[C@]2(C)CC[C@]3(C)[C@H](CC[C@@H]4[C@@]5(C)CC[C@H](O)C(C)(C)[C@@H]5CC[C@]43C)[C@H]2C1 |  | > 50 µM |  | 
CC1(C)CC[C@]2(C(=O)O)CC[C@]3(C)C(=CC[C@@H]4[C@@]5(C)CC[C@H](O)[C@@](C)(CO)[C@@H]5CC[C@]43C)[C@@H]2C1 [HEDERAGENIN] |  | 33.5 µM |  | 
CC1(C)CC[C@]2(C(=O)O)CC[C@]3(C)C(=CC[C@@H]4[C@@]5(C)CC[C@H](O)C(C)(C)[C@@H]5CC[C@]43C)[C@@H]2C1 [OLEANOLIC_ACID] |  | 12.5 µM |  | 
C[C@H](C1=CC(=O)c2cc3c(cc2C1=O)C(=O)c1occ2c1[C@@]3(C)CCC2)C1=CC(=O)c2cc3c(cc2C1=O)[C@]1(C)CCCc2coc(c21)C3=O | 0.49 µM |  |  | 
CC(=O)O[C@H]1CC[C@]2(C)[C@H]3CC=C4[C@@H]5[C@@H](C)[C@H](C)CC[C@]5(C(=O)O)CC[C@@]4(C)[C@]3(C)CC[C@H]2C1(C)C [O-ACETYLURSOLIC ACID] |  | > 50 µM |  | 
C[C@@]12CCCc3coc(c31)Cc1cc3c(cc12)C(=O)C(C1=CC(=O)c2cc4c(cc2C1=O)C(=O)c1occ2c1[C@@]4(C)CCC2)=CC3=O | 0.47 µM |  |  | 
C[C@@]12CCCc3coc(c31)C(=O)c1cc3c(cc12)C(=O)C=C(c1cc(OS(=O)(=O)O)c2cc4c(cc2c1O)C(=O)c1occ2c1[C@@]4(C)CCC2)C3=O | 1.2 µM |  |  | 
O=C(NC1CCS(=O)(=O)C2COCCC12)c1cc([N+](=O)[O-])c(Sc2c(Cl)cncc2Cl)s1 (configuration not stated) |  |  | 4.8 µM | 4.1 µM
C[C@@]12CCCc3c(CCO)oc(c31)C(=O)c1cc3c(cc12)C(=O)C=CC3=O | 1.4 µM |  |  | 
CS(=O)(=O)Nc1cccc(NC(=O)c2cc([N+](=O)[O-])c(Sc3c(Cl)cncc3Cl)s2)c1 |  |  | 0.64 µM | 1.28 µM
C[C@@]12CCCc3coc(c31)C(=O)c1cc3c4c(cc(OS(=O)(=O)O)c3cc12)[C@@]12CCC[C@@]3(C)c5cc6c(OS(=O)(=O)O)ccc(O)c6cc5C(=O)[C@@](O)(OC1)[C@@]23O4 | > 5 µM |  |  | 
CS(=N)(=O)c1cccc(NC(=O)c2cc([N+](=O)[O-])c(Sc3c(Cl)cncc3Cl)s2)c1 (configuration not stated) |  |  | 2 µM | 2.2 µM

SMILES | IC50 [1] | IC50 [2] | EC50 [3] | EC50 [4]
C=C(C)[C@@H]1CC[C@]2(C(=O)O)CC[C@]3(C)[C@H](CC[C@@H]4[C@@]5(C)CC[C@H](O)C(C)(C)[C@@H]5CC[C@]43C)[C@H]2C1 |  | 33.3 µM |  | 
C[C@H]1[C@H](C)CC[C@]2(C(=O)O)CC[C@]3(C)C(=CC[C@@H]4[C@@]5(C)C[C@@H](O)[C@H](O)C(C)(C)[C@@H]5CC[C@]43C)[C@H]12 [COROSOLIC ACID] |  | 22.7 µM |  | 
CC1CS(=O)(=O)c2cc(NC(=O)c3cc([N+](=O)[O-])c(Sc4c(Cl)cncc4Cl)s3)ccc21 (configuration not stated) |  |  | 0.075 µM | 0.36 µM
CC1=CS(=O)(=O)c2cc(NC(=O)c3cc([N+](=O)[O-])c(Sc4c(Cl)cncc4Cl)s3)ccc21 |  |  | 0.17 µM | 0.36 µM
O=C(Nc1ccc2c(c1)S(=O)(=O)CC2)c1cc([N+](=O)[O-])c(Sc2c(Cl)cncc2Cl)s1 |  |  | 0.13 µM | 2.03 µM
C[C@H]1[C@H](C)CC[C@]2(C(=O)O)CC[C@]3(C)C(=CC[C@@H]4[C@@]5(C)C[C@@H](O)[C@H](O)[C@@](C)(CO)[C@@H]5[C@H](O)C[C@]43C)[C@H]12 [MADECASSIC ACID] |  | > 50 µM |  | 
C[C@@]12CCCc3coc(c31)C(=O)c1cc3c(cc12)CC1=C2N(CCS1(=O)=O)[C@H](O)C[C@@]23O | > 5 µM |  |  | 
CN(C)CCNC1CS(=O)(=O)c2cc(NC(=O)c3cc([N+](=O)[O-])c(Sc4c(Cl)cncc4Cl)s3)ccc21 (configuration not stated) |  |  | 0.22 µM | 0.2 µM
O=C(Nc1ccc2c(c1)S(=O)(=O)C=C2)c1cc([N+](=O)[O-])c(Sc2c(Cl)cncc2Cl)s1 |  |  | 0.1 µM | 1.33 µM
CN(C)CCOc1ccc(NC(=O)c2cc([N+](=O)[O-])c(Sc3c(Cl)cncc3Cl)s2)cc1 |  |  | 0.5 µM | 0.45 µM
CCS(=O)(=O)c1cccc(NC(=O)c2cc([N+](=O)[O-])c(Sc3c(Cl)cncc3Cl)s2)c1 |  |  | 0.42 µM | 0.94 µM
N#Cc1cc(C(=O)Nc2ccc3c(c2)S(=O)(=O)C=C3)sc1Sc1c(Cl)cncc1Cl |  |  | 0.59 µM | 5.1 µM
C[C@@]12CCCc3coc(c31)C(=O)c1cc3c(cc12)[C@]1(O)C[C@H](O)N2CCS(=O)(=O)C(=C21)C3=O | > 5 µM |  |  | 
CS(=O)(=O)c1ccc(NC(=O)c2cc([N+](=O)[O-])c(Sc3c(Cl)cncc3Cl)s2)cc1 |  |  | 6.8 µM | 11.8 µM
CC1(C)[C@H](O)CC[C@]2(C)[C@H]3C(=O)C=C4[C@@H]5C[C@@](C)(C(=O)O)CC[C@]5(C)CC[C@]4(C)[C@@]3(C)CC[C@@H]12 |  | > 50 µM |  | 
C[C@H]1[C@H](C)CC[C@]2(C(=O)O)CC[C@]3(C)C(=CC[C@@H]4[C@@]5(C)C[C@@H](O)[C@H](O)[C@@](C)(CO)[C@@H]5CC[C@]43C)[C@H]12 [ASIATIC ACID] |  | > 50 µM |  | 
CC1(C)CC[C@]2(C(=O)O)[C@H](O)C[C@]3(C)C(=CC[C@@H]4[C@@]5(C)C[C@H](O)[C@H](O)[C@@](C)(CO)[C@@H]5CC[C@]43C)[C@@H]2C1 |  | > 50 µM |  | 
O=C(NC1CCS(=O)(=O)CC1)c1cc([N+](=O)[O-])c(Sc2c(Cl)cncc2Cl)s1 |  |  | 2.1 µM | 3.5 µM
CC1CS(=N)(=O)c2cc(NC(=O)c3cc([N+](=O)[O-])c(Sc4c(Cl)cncc4Cl)s3)ccc21 (configuration not stated) |  |  | 0.47 µM | 1.1 µM
O=C(Nc1cccc(S(=O)(=O)CC2CC2)c1)c1cc([N+](=O)[O-])c(Sc2c(Cl)cncc2Cl)s1 |  |  | 0.39 µM | 1.5 µM
COCCNC1CS(=O)(=O)c2cc(NC(=O)c3cc([N+](=O)[O-])c(Sc4c(Cl)cncc4Cl)s3)ccc21 (configuration not stated) |  |  | 0.79 µM | 2 µM
